Results reported in patent publication US20160237511A1, “METHODS FOR D[…] SENSITIVITY TO VIRAL INHIBITORS” (priority 2013, published 2016).

What was measured:
[1] = system: replicons containing patient-derived NS5B regions from GT1, GT2, GT3, and GT4 viruses; assay: PhenoSense HCV NS5B Assay, luciferase replicon panel across genotypes; assay type: cell-based, hepatitis C virus (HCV); settings: for variation in susceptibility within and between genotypes: GT1-GT4 chimeric replicons, IC50/IC95 fold change
Description: Most samples were received as frozen plasma and were accompanied by information including HCV genotype and/or subtype (e.g., 1a, 1b, 2, 3, 4) and viral load. Samples were thawed and stored in frozen aliquots if necessary, and a 200 μL aliquot was processed. Virus particles were disrupted by addition of lysis buffer containing a chaotropic agent. Genomic viral RNA (vRNA) was extracted from viral lysates using oligo-nucleotide linked magnetic beads. Purified vRNA was used as a template for first-strand cDNA synthesis in a reverse transcriptase (RT) reaction. The resulting cDNA was used as the template for the first round of a nested polymerase chain reaction (PCR) that results in the amplification of the entire NS5B region. Due to the sequence variation between different genotypes, specific RT and first and second round PCR primers were used. If genotype and/or subtype information was not available, more than one primer set can be used sequentially or in parallel.
The second round (nested) PCR amplification primer set contained restriction endonuclease recognition/cleavage sites that enable cloning of NS5B amplification products into an HCV replicon resistance test vector (RTV) for phenotypic drug susceptibility analysis. […] Plasmid DNA was purified from bacterial cultures, using silica column chromatography, and was quantified by spectrophotometry.
Prior to in vitro transcription of the RTV, the plasmid DNA template was linearized by restriction endonuclease digestion and column purified. […] In vitro transcribed RNA was column purified, quantified, and the integrity was evaluated using electrophoretic separation.
RTV RNA was electroporated into a Huh7 cell line, and electroporated cells were incubated in the absence and presence of serially diluted inhibitors. RNA input was monitored by measuring the amount of luciferase activity produced in the electroporated cells at 4 hours post-electroporation. Luciferase activity is expressed as relative light units (RLU). […]

[2] = system: GT1 (a/b) chimeric replicons (patient-derived NS5B); assay: PhenoSense HCV NS5B Assay, GT1 chimeric replicons; assay type: cell-based, hepatitis C virus (HCV); settings: GT1a/b NS5B replicons
Description: (§1) RTV RNA was electroporated into a Huh7 cell line, and electroporated cells were incubated in the absence and presence of serially diluted inhibitors. RNA input was monitored by measuring the amount of luciferase activity produced in the electroporated cells at 4 hours post-electroporation. Luciferase activity is expressed as relative light units (RLU). Replication capacity (RC) was determined by evaluating luciferase activity at 72-96 hours postelectroporation in the absence of inhibitor, relative to RNA input and a control reference replicon RTV (Con1). A replication defective Con1 replicon (Con1 polymerase defective) was utilized to determine assay background (data not shown). Inhibitor susceptibility was determined by evaluating the ability of RTVs to replicate in the absence and presence of inhibitor at 72-96 hours post-electroporation. The % inhibition at each serial diluted inhibitor concentration was derived as follows:
(§2) [1−([…])]×100
(§3) Inhibitor susceptibility profiles (curves) were derived from these values, and inhibition data (e.g., IC50, the inhibitor concentration required to reduce virus replication by 50%; and IC95, the inhibitor concentration required to reduce virus replication by 95%) was extrapolated from fitted curves. […]

[3] = system: GT2 (a/b/k) chimeric replicons (patient-derived NS5B); assay: PhenoSense HCV NS5B Assay, GT2 chimeric replicons; assay type: cell-based, hepatitis C virus (HCV); settings: for susceptibility of GT2 chimeric replicons: Example 4, IC50 fold change, compared to GT1 chimeric replicons
Description: as §1, §2
(§4) Inhibitor susceptibility profiles (curves) were derived from these values, and inhibition data (e.g., IC50, the inhibitor concentration required to reduce virus replication by 50%; and IC95, the inhibitor concentration required to reduce virus replication by 95%) was extrapolated from fitted curves. Inhibition data are reported as fold-change relative to that of a reference RTV (e.g., IC50 (sample)/IC50 (reference)) processed in the same assay batch (e.g., IC50 fold-change (FC) from reference). An example of the PhenoSense® HCV NS5B Assay workflow is shown in FIG. 1, and a representative inhibitor susceptibly curve is shown in FIG. 2.
(§5) To determine the susceptibility of different genotype viruses to various inhibitors, the PhenoSense® HCV NS5B Assay was used. A panel of replicons were generated that contained patient-derived NS5B regions from GT1 (a/b), GT2 (a/b/k), GT3 (a/unknown), and GT4 (a/d/n/unknown) viruses. The various chimeric replicons were used in the phenotypic susceptibility assays described herein. […]

[4] = system: GT3 (a/unknown) chimeric replicons (patient-derived NS5B); assay: PhenoSense HCV NS5B Assay, GT3 chimeric replicons; assay type: cell-based, hepatitis C virus (HCV); settings: Example 4; for susceptibility of GT3 chimeric replicons: IC50 fold change, compared to GT1 chimeric replicons
Description: as §1, §2, §4, §5

[5] = system: GT4 (a/d/n/unknown) chimeric replicons (patient-derived NS5B); assay: PhenoSense HCV NS5B Assay, GT4 chimeric replicons; assay type: cell-based, hepatitis C virus (HCV); settings: Example 4; IC50 fold change, compared to GT1 chimeric replicons
Description: as §1, §2, §3

HCV infection = settings: cited from earlier work
[6] = non-primate animal species; cited from earlier work

| Compound | variation in susceptibility within and between genotypes [1] | IC FC range ([1]; IC fold change vs Con1 reference, range over GT1-GT4 viruses (FIG. 6, FIG. 10)) | susceptibility among GT1 replicons [2] | susceptibility of GT2 chimeric replicons [3] | susceptibility of GT3 chimeric replicons [4] | susceptibility of GT4 chimeric replicons [5] | half-life (HCV infection; in the body) | anemia (HCV infection; patients) | teratogenic effects [6] | susceptibility of GT2a compared to GT2b chimeric replicons ([3]; Example 4 (FIG. 8, FIG. 9)) | susceptibility of GT3 viruses compared to GT2 [4] | most common adverse effects (HCV infection; administered in combination with PEG-IFN) | reported adverse effects (HCV infection; administered in combination with ribavirin) |
| --- | --- | --- | --- | --- | --- | --- | --- | --- | --- | --- | --- | --- | --- |
| NC(=O)c1ncn([C@@H]2O[C@H](CO)[C@@H](O)[C@H]2O)n1 [RBV, ribavirin] | more variable between genotypes | 25 | similar | statistically significant increases | particularly susceptible | particularly susceptible | long half-life | cause of anemia | Significant teratogenic effects | – | – | – | – |
| CC(C)OC(=O)[C@H](C)N[P@](=O)(OC[C@H]1O[C@@H](n2ccc(=O)[nH]c2=O)[C@](C)(F)[C@@H]1O)Oc1ccccc1 [SOF, sofosbuvir] | more variable between genotypes | – | similar | increased susceptibility | significantly reduced | significantly reduced | – | – | – | more increased susceptibility | reduced susceptibility | fatigue, headache, nausea, insomnia, and anemia | fatigue and headache |
